# Experimental data from article PMC10666768, “Optimized peptide nanofibrils as efficient transduction enhancers for in vitro and ex vivo gene transfer” (Frontiers in Immunology, 2023).
# “Also recorded” adds a separate entry of the source. Peptide text beside a SMILES is read from it.
# Assays:
# [1] = test system: TZM-bl cells
# Experimental: To determine the effect of peptides on cellular metabolic activity, MTT (Thiazolyl blue tetrazolium bromide) Cell Growth Assay (Merck, Cat: CT02) and CellTiter-Glo Luminescent Cell Viability Assay (Promega, Cat: G7571) were performed. 10,000 TZM-bl cells or 50,000 Jurkat cells were seeded into 96-well plates and treated with indicated concentrations of peptides. For TZM-bl cells, the supernatants were removed after three days and 100 µl MTT (0.5 mg/ml) was added and incubated for 2.5 hours. For Jurkat cells, supernatants were removed after two days, and cells were incubated with 40 μl MTT (1 mg/ml) for 5 hours. Then the MTT solution was removed, and 100 µl 1:1 DMSO-Ethanol was added. The absorption was measured at 590 nm with baseline-corrected at 650 nm using VersaMax Microplate Reader (Molecular Devices). The CellTiter-Glo assay was performed according to the manufacturing protocol. 100 μl CellTiter-Glo Reagent 1:1 diluted in PBS (Gibco, 14200075) was added to pelleted Jurkat cells for 10 min followed by transferring 50 µl to white microplate, and luminescence was recorded by Orion microplate luminometer (Berthold).
# (A) TZM-bl cells were treated […]
# with different peptide concentrations. MTT assay was performed three days later. […] The cell viability in % was calculated by normalizing sample values to untreated control which was set to 100 %. […]
# [2] = Chemical stability of PNFs by HPLC and MALDI-TOF MS; assay type: physicochemical; details: 2 mg/ml PNFs in PBS, RT or 37°C, 10 min, 1 h, 24 h, 10 d; reversed-phase C18 HPLC, UV 214 nm
# Experimental: RM-8 and D4 were prepared at 2 mg/ml in PBS and were incubated at room temperature (RT) or 37°C for 10 min, 1 hour, 24 hours, and 10 days. Aliquots (25 µL) of both samples were separated after 10 minutes, 1 hour, 24 hours, and 10 days and centrifuged at 13,000 x g for one minute. Supernatants were diluted with 100 µL 10% acetic acid, whereas the pellets were dissolved in 125 µL 6 M guanidinium chloride. All samples were analyzed in an Agilent 1100 Series HPLC system, using a reversed-phase BioBasicTM 18-HPLC column (Thermo Scientific) of dimensions 2.1 x 100 mm and particle size of 5 µm. Gradient elution was used for elution as follows (RM-8): 0 min/5%B, 1 min/20%B, and 15 min/40%B; and for D4: 0 min/5%B, 1 min/15%B, and 15 min/35/%B), being A, 0. 1% TFA in water, and B, 0.1% TFA in acetonitrile. The flow rate was 0.5 mL/min, and the detection was monitored online by UV absorption at 214 nm. ChemStation (version B.04.03, Agilent) was used for data acquisition and the HPLC system’s control.
# Mass spectra were obtained with an Axima Confidence MALDI-TOF mass spectrometer (Shimadzu). Measurements were performed in positive ion reflectron mode. The mass range was 100–10000 Da. For each sample, 20 shots were accumulated per profile (100 profiles per spectra) using a laser power of 42% and a laser frequency of 50 Hz. TOFMix MALDI kit (Shimadzu) was used for external mass calibration. […]
# [3] = test system: human T cells; details: trypan blue after 7 days
# [4] = test system: human NK cells; details: 4-day incubation, propidium iodide, three donors
# Experimental: NK cells were isolated from buffy coats of healthy donors by standard density-gradient centrifugation, using Ficoll-Paque (VWR, Cat: 17-1440-03) using the RosetteSep™ Human NK Cell Enrichment Cocktail ([sequence] Technologies, Cat: 15065). NK cells were cultured at 1×10^6 cells/ml in NK MACS medium (Miltenyi Biotec, Cat: 130-114-429) with 5% human AB serum (Sigma Aldrich, Cat: H4522-100ML), 500 U/ml IL-2 (Peprotech, Cat: 200-02) and 140 U/ml IL-15 (Peprotech, Cat: 200-15). […] 1.25×10^5 NK cells were seeded per well in a 48-well plate. […] Propidium Iodide (PI) (Miltenyi Biotec, Cat: 130-093-233) staining was used to determine the viability of NK cells.
# [5] = test system: NF-κB pathway; assay: THP1-Dual cells, NF-κB pathway (SEAP); assay type: cell-based; details: 24 h
# Experimental: To analyze if PNFs stimulate an immune response, different PNFs concentrations (5, 10, 30 and 50 µg/ml) and 0.1 µg/ml lipopolysaccharide (LPS, InvivoGen, Cat: tlrl-eklps) as a positive control were incubated with 70,000 THP1-Dual cells, a monocyte cell line that allows the simultaneous analysis of the NF-κB and interferon regulatory factor (IRF) pathway, which are major effectors of the innate immune response ([45]). After 24 h, cellular supernatants were analyzed for the activation of the NF-κB pathway by measuring the activity of secreted alkaline phosphatase (SEAP). Therefore, 20 µl supernatant was mixed with 120 µl Alkaline Phosphatase Blue Microwell Substrate (Sigma Aldrich, Cat: AB0100-1KT). After 10 min, 30 µl Alkaline Phosphatase Stop Solution (Sigma Aldrich, Cat: A5852) was added and adsorption at 620 nm was measured using VersaMax Microplate Reader (Molecular Devices). For analysis of IRF pathway, secreted Gaussia Luciferase was measured. 25 µl supernatant was transferred to a white 96 well microtiter plate and Gaussia substrate (82.6 µg/ml Colenterazine, PJK, Cat: 102172) was automatically added according to manufacturer’s protocol and Luminescence was measured by Orion II Microplate Luminometer (Berthold).
Compound,"Cytotoxicity, TZM-bl cells [1]",Chemical stability by HPLC [2],"Cytotoxic effect on T cells, GALV-RV transduction ([3]; two donors)",NK cell viability at highest concentration ([4]; 30 µg/ml),Activation of NF-κB pathway at 50 µg/ml [5],T cell viability after GALV-RV transduction ([3]; four donors),NK cell viability [4]
CC[C@H](C)[C@H](NC(=O)[C@H](Cc1ccccc1)NC(=O)[C@@H](NC(=O)[C@@H](NC(=O)[C@@H](N)CCCNC(=N)N)[C@@H](C)O)[C@@H](C)CC)C(=O)N[C@H](C(=O)N[C@@H](CO)C(=O)N[C@@H](CCSC)C(=O)O)[C@@H](C)CC [RM-8] (H-RTIFIISM-OH),not being cytotoxic,chemically stable over time; also recorded: chemically stable for 10 days,not showing any cytotoxic effect,slightly reduced cell viability,–,–,–
CC[C@H](C)[C@H](NC(=O)[C@H](Cc1ccccc1)NC(=O)[C@@H](NC(=O)[C@@H](NC(=O)[C@@H](N)CCCNC(=N)N)[C@@H](C)O)[C@@H](C)CC)C(=O)N[C@H](C(=O)N[C@@H](CO)C(=O)N[C@@H](CCSC)C(=O)N[C@@H](Cc1ccc(O)cc1)C(=O)N[C@@H](CCCCN)C(=O)O)[C@@H](C)CC [RK-10] (H-RTIFIISMYK-OH),not being cytotoxic,–,–,–,–,–,–
CC[C@H](C)[C@H](NC(=O)[C@H](CCCNC(=N)N)NC(=O)[C@@H](N)CCCNC(=N)N)C(=O)N[C@@H](Cc1ccccc1)C(=O)N[C@H](C(=O)N[C@H](C(=O)N[C@@H](CO)C(=O)N[C@@H](CCSC)C(=O)O)[C@@H](C)CC)[C@@H](C)CC [D4] (H-RRIFIISM-OH),–,chemically stable for 10 days; also recorded: single peak with unchanged retention time,–,–,significant activation of the NF-kB pathway,neither D4 PNF nor the other transduction enhancers affected T cell viability,did not show any impact on cell viability
